Reference: patent publication US7528164B2, “Substituted 4-aryl-4h-pyrrolo[2,3-h]chromenes and analogs as activators of caspases and inducers of apoptosis and the use thereof” (Cytovia, Inc., priority 2002, dated 2009)
Where two headings read alike, the source gives them in different places.

What was measured:
[1] = test system: ZR-75-1; test: Caspase cascade activation assay in ZR-75-1 cells (N-(Ac-DEVD)-N'-ethoxycarbonyl-R110 fluorogenic substrate); format: cell-based; conditions: ZR-75-1 human breast cancer cells, 24 h incubation; for Caspase activity (Ratio): ratio of net RFU of test compound to control; for EC50: sigmoidal dose-response, read-out: Caspase potency EC50
Method: (§1) Human breast cancer cell lines T-47D and ZR-75-1 were grown according to media component mixtures designated by American Type Culture Collection+10% FCS (Invitrogen Corporation), in a 5% CO2-95% humidity incubator at 37° C. T-47D and ZR-75-1 cells were maintained at a cell density between 30 and 80% confluency at a cell density of 0.1 to 0.6×10^6 cells/mL. Cells were harvested at 600×g and resuspended at 0.65×10^6 cells/mL into appropriate media+10% FCS. An aliquot of 45 μl of cells was added to a well of a 96-well microtiter plate containing 5 μl of a 10% DMSO in RPMI-1640 media solution containing about […] of 2-amino-3-cyano-4-(5-methyl-pyridin-3-yl)-7-methyl-4H-pyrrolo[2,3-h]chromene (Example 10) or other test compound (0.016 to 1 μM final). An aliquot of 45 μl of cells was added to a well of a 96-well microtiter plate containing 5 μl of a 10% DMSO in RPMI-1640 media solution without test compound as the control sample. The samples were mixed by agitation and then incubated at 37° C. for 24 h in a 5% CO2-95% humidity incubator. After incubation, the samples were removed from the incubator and 50 μl of a solution containing 20 μM of N-(Ac-DEVD)-N′-ethoxycarbonyl-R110 (SEQ ID No:1) fluorogenic substrate (Cytovia, Inc.; U.S. Pat. No. 6,335,429), 20% sucrose (Sigma), 20 mM DTT (Sigma), 200 mM NaCl (Sigma), 40 mM Na PIPES buffer pH 7.2 (Sigma), and 500 μg/ml lysolecithin (Calbiochem) was added. The samples were mixed by agitation and incubated at room temperature. Using a fluorescent plate reader (Model 1420 Wallac Instruments), an initial reading (T=0) was made approximately 1-2 min after addition of the substrate solution, employing excitation at 485 nm and emission at 530 nm, to determine the background fluorescence of the control sample. After the 3 h incubation, the samples were read for fluorescence as above (T=3 h).
(§2) The Relative Fluorescence Unit values (RFU) were used to calculate the sample readings as follows: RFU(T=3h)−Control RFU(T=0)=Net RFU(T=3h) The activity of caspase cascade activation was determined by the ratio of the net RFU value for 2-amino-3-cyano-4-(5-methyl-pyridin-3-yl)-7-methyl-4H-pyrrolo[2,3-h]chromene or other test compound to that of control samples. The EC50 (nM) was determined by a sigmoidal dose-response calculation (Prism 2.0, GraphPad Software Inc.).

[2] = test system: T-47D; test: Caspase cascade activation assay in T-47D cells (N-(Ac-DEVD)-N'-ethoxycarbonyl-R110 fluorogenic substrate); format: cell-based; conditions: T-47D human breast cancer cells, 24 h incubation; for Caspase activity (Ratio): ratio of net RFU of test compound to control; for EC50: sigmoidal dose-response, read-out: Caspase potency EC50
Method: as §1, §2

Compound	Caspase activity (Ratio) [1]	EC50 [1]	Caspase activity (Ratio) [2]	EC50 [2]	EC50 ([2]; T47D)
CCC=CCC=CCC=CCC=CCC=CCC=CCCC(=O)OCn1ccc2c3c(ccc21)C(c1cc(Br)c(OC)c(OC)c1)C(C#N)=C(N)O3 (stereo not drawn) [Example 38, 4,7,10,13,16,19-Docosahexaenoic acid {2-Amino-4-(3-bromo-4,5-dimethoxy-phenyl)-3-cyano-4H-pyrrolo[2,3-h]chromene}-7-ylmethyl ester]	6.9	29 nM	5.2	55 nM	
COc1cc(C2C(C#N)=C(N)Oc3c2ccc2c3ccn2C)cc(OC)c1OC (stereo not drawn) [Example 24, 2-Amino-3-cyano-4-(3,4,5-trimethoxyphenyl)-7-methyl-4H-pyrrolo[2,3-h]chromene]	7.1	2.2 nM	5.5		3.4 nM
Cn1ccc2c3c(ccc21)C(c1cccc(F)c1)C(C#N)=C(N)O3 (stereo not drawn) [Example 40A, 2-Amino-3-cyano-4-(3-fluorophenyl)-7-methyl-4H-pyrrolo[2,3-h]chromene]	4.1	7.2 nM	5.1		14 nM
Cn1ccc2c3c(ccc21)C(c1ccc(F)c(F)c1)C(C#N)=C(N)O3 (stereo not drawn) [Example 40G, 2-Amino-3-cyano-4-(3,4 difluorophenyl)-7-methyl-4H-pyrrolo[2,3-h]chromene]	5.9	15 nM	4.6		29 nM
COc1cc(C2C(C#N)=C(N)Oc3c2ccc2c3ccn2C)cc(Br)c1OC(C)=O (stereo not drawn) [Example 22, 2-Amino-4-(4-acetoxy-3-bromo-5-methoxyphenyl)-3-cyano-7-methyl-4H-pyrrolo[2,3-h]chromene]	7.2	2 nM	5.3		3.4 nM
Cn1ccc2c3c(ccc21)C(c1cnc2ccccc2n1)C(C#N)=C(N)O3 (stereo not drawn) [Example 3, 2-Amino-3-cyano-7-methyl-4-(quinoxalin-2-yl)-4H-pyrrolo[2,3-h]-chromene]	3.1	27.8 nM	5.6		58.1 nM
Cn1ccc2c3c(ccc21)C(c1cccc(C#N)c1)C(C#N)=C(N)O3 (stereo not drawn) [Example 32, 2-Amino-3-cyano-4-(3-cyanophenyl)-7-methyl-4H-pyrrolo[2,3-h]chromene]	3.6	2.9 nM	5.3		6.9 nM
COc1cc(C2C(C#N)=C(N)Oc3c2ccc2c3ccn2CC2CO2)cc(Br)c1OC (stereo not drawn) [Example 19, 2-Amino-4-(3-bromo-4,5-dimethoxyphenyl)-3-cyano-7-oxiranylmethyl-4H-pyrrolo[2,3-h]chromene]	11.7	107 nM	10.2		231 nM
COc1cccc(C2C(C#N)=C(N)Oc3c2ccc2c3ccn2C)c1 (stereo not drawn) [Example 28, 2-Amino-3-cyano-4-(3-methoxyphenyl)-7-methyl-4H-pyrrolo[2,3-h]chromene]	6.3	3.3 nM	4.6		7.2 nM
COc1cc(C2C(C#N)=C(N)Oc3c2ccc2c3ccn2C)cc(I)c1OC (stereo not drawn) [Example 31, 2-Amino-3-cyano-4-(4,5-dimethoxy-3-iodophenyl)-7-methyl-4H-pyrrolo[2,3-h]chromene]	4.3	3.7 nM	6.3		4.9 nM
COc1cc(C2C(C#N)=C(N)Oc3c2ccc2c3CCN2C)cc(Br)c1OC (stereo not drawn) [Example 23, 2-Amino-4-(3-bromo-4,5-dimethoxyphenyl)-3-cyano-8,9-dihydro-7-methyl-4H-pyrrolo[2,3-h]chromene]	5.0	2.3 nM	5.2		3.3 nM
2-Amino-4-(5-bromo-pyridin-3-yl)-3-cyano-7-methyl-4H-imidazo[4,5-h]chromene [Example 13]	8.0	3.2 nM	8.8	6.8 nM	
CN1CCc2c1ccc1c2OC(N)=C(C#N)C1c1cc(F)cc(F)c1 (stereo not drawn) [Example 35, 2-Amino-3-cyano-4-(3,5-difluorophenyl)-8,9-dihydro-7-methyl-4H-pyrrolo [2,3-h]chromene]	5.5	10 nM	4.3		28 nM
COc1cc(OC)cc(C2C(C#N)=C(N)Oc3c2ccc2c3ccn2C)c1 (stereo not drawn) [Example 26, 2-Amino-3-cyano-4-(3,5-dimethoxyphenyl)-7-methyl-4H-pyrrolo[2,3-h]chromene]	7.1	1.7 nM	5.2		3.5 nM
COc1cc(C2C(C#N)=C(N)Oc3c2ccc2c3ccn2C)cc(Br)c1OC (stereo not drawn) [Example 16, 2-Amino-4-(3-bromo-4,5-dimethoxyphenyl)-3-cyano-7-methyl-4H-pyrrolo[2,3-h]chromene]	11.7	1 nM	8.1		1.6 nM
COc1cc(C2C(C#N)=C(N)Oc3c2ccc2c3ccn2CC2CC2)cc(Br)c1OC (stereo not drawn) [Example 5, 2-Amino-4-(3-bromo-4,5-dimethoxyphenyl)-3-cyano-7-cyclopropylmethyl-4H-pyrrolo[2,3-h]chromene]	3.0	28.6 nM	4.0		55.3 nM
COc1cncc(C2C(C#N)=C(N)Oc3c2ccc2c3ccn2C)c1 (stereo not drawn) [Example 41, 2-Amino-3-cyano-4-(5-methoxy-pyridin-3-yl)-7-methyl-4H-pyrrolo[2,3-h]chromene]	4.2	2 nM	3.8		4 nM
Cc1cncc(C2C(C#N)=C(N)Oc3c2ccc2c3CCN2C)c1 (stereo not drawn) [Example 36, 2-Amino-4-(5-methyl-pyridin-3-yl)-3-cyano-7-methyl-8,9-dihydro-4H-pyrrolo[2,3-h]chromene]	6.3	5 nM	4.6		13 nM
2-Amino-4-(3-bromo-4,5-dimethoxyphenyl)-3-cyano-7-methyl-4H-imidazo[4,5-h]chromene [Example 12]	8.5	1.5 nM	5.4	1.6 nM	
Cc1cncc(C2C(C#N)=C(N)Oc3c2ccc2c3ccn2C)c1 (stereo not drawn) [Example 10, 2-Amino-3-cyano-4-(5-methyl-pyridin-3-yl)-7-methyl-4H-pyrrolo[2,3-h]chromene]	6.6	1.6 nM	3.1		2.3 nM
Cn1ccc2c3c(ccc21)C(c1ccc(F)c(Br)c1)C(C#N)=C(N)O3 (stereo not drawn) [Example 40I, 2-Amino-3-cyano-4-(3-bromo-4-fluorophenyl)-7-methyl-4H-pyrrolo[2,3-h]chromene]	4.4	14 nM	3.9		29 nM
Cn1ccc2c3c(ccc21)C(c1cc(Cl)cc(Cl)c1)C(C#N)=C(N)O3 (stereo not drawn) [Example 40D, 2-Amino-3-cyano-4-(3,5-dichlorophenyl)-7-methyl-4H-pyrrolo[2,3-h]chromene]	2.9	15 nM	3.3		25 nM
Cn1ccc2c3c(ccc21)C(c1cncc(C#N)c1)C(C#N)=C(N)O3 (stereo not drawn) [Example 1, 2-Amino-4-(5-cyano-pyridin-3-yl)-3-cyano-7-methyl-4H-pyrrolo[2,3-h]chromene]	5.2	6.5 nM	8.3		25.5 nM
Cn1ccc2c3c(ccc21)C(c1cccc(Br)c1)C(C#N)=C(N)O3 (stereo not drawn) [Example 29, 2-Amino-3-cyano-4-(3-bromophenyl)-7-methyl-4H-pyrrolo[2,3-h]chromene]	6.3	5.7 nM	3.3		12 nM
